Test results published in US12485169B2, “Compounds” (GREY WOLF THERAPEUTICS LIMITED, priority 2018, dated 2025).

Molecular target: T1, Purified ERAP1 (37-941)-10His (ERAP1) (Homo sapiens, UniProt Q9NZ08)
T1 construct: Purified ERAP1 (37-941)-10His (ERAP1)
Experiment: ERAP1 mediated hydrolysis of an amide substrate (10-mer inhibition assay), biochemical system
Details: 10-mer substrate, 23° C., 1 h, excitation 279 nm / emission 355 nm; read-out: IC50 vs Decapeptide WRVYEKC(Dnp)ALK-acid (where Dnp is Dinitrophenyl maleimide) (10-mer)

T1 sequence (Q9NZ08 37-941): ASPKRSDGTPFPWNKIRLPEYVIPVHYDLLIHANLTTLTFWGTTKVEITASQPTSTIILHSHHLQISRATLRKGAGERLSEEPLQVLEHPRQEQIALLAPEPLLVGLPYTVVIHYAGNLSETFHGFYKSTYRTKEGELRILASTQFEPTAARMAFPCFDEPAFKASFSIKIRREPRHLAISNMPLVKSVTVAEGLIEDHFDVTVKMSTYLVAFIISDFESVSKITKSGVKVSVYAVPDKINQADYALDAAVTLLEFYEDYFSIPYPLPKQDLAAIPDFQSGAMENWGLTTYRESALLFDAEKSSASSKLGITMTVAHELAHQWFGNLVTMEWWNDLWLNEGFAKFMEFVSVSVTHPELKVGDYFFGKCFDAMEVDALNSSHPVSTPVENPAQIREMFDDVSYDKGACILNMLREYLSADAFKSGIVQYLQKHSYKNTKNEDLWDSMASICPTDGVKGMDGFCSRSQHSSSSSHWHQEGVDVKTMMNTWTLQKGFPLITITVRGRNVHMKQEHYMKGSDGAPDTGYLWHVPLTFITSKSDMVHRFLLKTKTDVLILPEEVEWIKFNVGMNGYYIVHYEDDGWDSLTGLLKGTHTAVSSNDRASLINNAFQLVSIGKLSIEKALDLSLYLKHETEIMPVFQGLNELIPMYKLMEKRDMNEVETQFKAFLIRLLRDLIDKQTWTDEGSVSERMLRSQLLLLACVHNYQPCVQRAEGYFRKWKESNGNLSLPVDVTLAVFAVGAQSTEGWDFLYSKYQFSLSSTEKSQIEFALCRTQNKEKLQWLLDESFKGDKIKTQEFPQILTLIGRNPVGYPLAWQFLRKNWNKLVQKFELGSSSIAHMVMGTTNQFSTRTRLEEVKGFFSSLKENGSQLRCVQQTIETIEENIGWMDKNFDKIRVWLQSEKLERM

Compound | IC50
COc1ccc(C(=O)O)cc1S(=O)(=O)Nc1cc(C(F)(F)F)ccc1N1CCC(F)CC1 [Example 206, 3-(N-(2-(4-fluoropiperidin-1-yl)-5-(trifluoromethyl)phenyl)sulfamoyl)-4-methoxybenzoic acid] | < 500 nM
CCc1ccc(C(=O)O)cc1S(=O)(=O)Nc1cc(-n2cnnn2)ccc1N1CCC[C@H](O)C1 [Example 254, (S)-4-ethyl-3-(N-(2-(3-hydroxypiperidin-1-yl)-5-(tetrazol-1-yl)phenyl)sulfamoyl)benzoic acid] | < 500 nM
COc1ccc(C(=O)O)cc1S(=O)(=O)Nc1cc(C(F)(F)F)ccc1N1CCC(OC)C(C)(C)C1 (stereo not shown) [Example 16, 4-methoxy-3-(N-(2-(4-methoxy-3,3-dimethylpiperidin-1-yl)-5-(trifluoromethyl)phenyl)sulfamoyl)benzoic acid] | < 500 nM
CCc1ccc(C(=O)O)cc1S(=O)(=O)Nc1cc(C(F)(F)F)ccc1N1CCC[C@H](F)C1 [Example 210, (S)-4-ethyl-3-(N-(2-(3-fluoropiperidin-1-yl)-5-(trifluoromethyl)phenyl)sulfamoyl)benzoic acid] | < 500 nM
COc1ccc(C(=O)O)cc1S(=O)(=O)Nc1cc(C(F)(F)F)ccc1N1CCCC[C@@H]1C [Example 239, (S)-4-methoxy-3-(N-(2-(2-methylpiperidin-1-yl)-5-(trifluoromethyl)phenyl)sulfamoyl)benzoic acid] | < 500 nM
COc1ccc(C(=O)O)cc1S(=O)(=O)Nc1cc(C(F)(F)F)ccc1N1CCC(O)(C(F)(F)F)CC1 [Example 17, 3-(N-(2-(4-hydroxy-4-(trifluoromethyl)piperidin-1-yl)-5-(trifluoromethyl)phenyl)sulfamoyl)-4-methoxybenzoic acid] | > 5000 nM
COc1ccc(C(=O)O)cc1S(=O)(=O)Nc1cc(C(F)(F)F)ccc1N1CCCCC1 [Example 54, 4-methoxy-3-(N-(2-(piperidin-1-yl)-5-(trifluoromethyl)phenyl)sulfamoyl)benzoic acid] | < 500 nM
CCc1ccc(C(=O)O)cc1S(=O)(=O)Nc1cc(Cl)ccc1N1CCCC(F)(F)C1 [Example 220, 3-(N-(5-chloro-2-(3,3-difluoropiperidin-1-yl)phenyl)sulfamoyl)-4-ethylbenzoic acid] | < 500 nM
COc1ccc(C(=O)O)cc1S(=O)(=O)Nc1cc(C(F)(F)F)ccc1N1CCC(OC(C)C)CC1 [Example 187, 3-(N-(2-(4-isopropoxypiperidin-1-yl)-5-(trifluoromethyl)phenyl)sulfamoyl)-4-methoxybenzoic acid] | < 5000 nM
CCc1ccc(C(=O)O)cc1S(=O)(=O)Nc1cc(C(F)F)ccc1N1CCCCC1 [Example 213, 3-(N-(5-(difluoromethyl)-2-(piperidin-1-yl)phenyl)sulfamoyl)-4-ethylbenzoic acid] | < 500 nM
COc1ccc(C(=O)O)cc1S(=O)(=O)Nc1cc(C(F)(F)F)ccc1N1[C@@H]2CC[C@H]1C[C@@H](O)C2 [Example 23, 3-(N-(2-(endo-3-hydroxy-8-azabicyclo [3.2.1]octan-8-yl)-5-(trifluoromethyl)phenyl)sulfamoyl)-4-methoxybenzoic acid] | > 5000 nM
N#Cc1cc(NS(=O)(=O)c2cc(C(=O)O)ccc2C2CC2)c(N2CCCCC2)cc1Cl [Example 327, 3-(N-(4-chloro-5-cyano-2-(piperidin-1-yl)phenyl)sulfamoyl)-4-cyclopropylbenzoic acid] | < 500 nM
COc1ccc(C(=O)O)cc1S(=O)(=O)Nc1cc(C(F)(F)F)ccc1N1CCCC[C@H]1C [Example 235, I-4-methoxy-3-(N-(2-(2-methylpiperidin-1-yl)-5-(trifluoromethyl)phenyl)sulfamoyl)benzoic acid] | < 500 nM
CCc1ccc(C(=O)O)cc1S(=O)(=O)Nc1cc(C#N)ccc1N1CCC[C@@H](F)C1 [Example 311, I-3-(N-(5-cyano-2-(3-fluoropiperidin-1-yl)phenyl)sulfamoyl)-4-ethylbenzoic] | < 500 nM
COc1ccc(C(=O)O)cc1S(=O)(=O)Nc1cc(C(F)(F)F)ccc1N1CCC2(CCO2)CC1 [Example 186, 3-(N-(2-(1-oxa-7-azaspiro[3.5]nonan-7-yl)-5-(trifluoromethyl)phenyl)sulfamoyl)-4-methoxybenzoic acid] | < 500 nM
COc1ccc(C(=O)O)cc1S(=O)(=O)Nc1cc(C(F)(F)F)ccc1N1CCC[C@@H](F)C1 [Example 208, I-3-(N-(2-(3-fluoropiperidin-1-yl)-5-(trifluoromethyl)phenyl)sulfamoyl)-4-methoxybenzoic acid] | < 500 nM
COc1ccc(C(=O)O)cc1S(=O)(=O)Nc1cc(C(F)(F)F)ccc1N1CCC(C)CC1 [Example 84, 4-methoxy-3-(N-(2-(4-methylpiperidin-1-yl)-5-(trifluoromethyl)phenyl)sulfamoyl)benzoic acid] | < 5000 nM
COc1ccc(C(=O)O)cc1S(=O)(=O)Nc1cc(C(F)(F)F)ccc1N1CCC(O)C1 (stereo not shown) [Example 36, 3-(N-(2-(3-hydroxypyrrolidin-1-yl)-5-(trifluoromethyl)phenyl)sulfamoyl)-4-methoxybenzoic acid] | < 5000 nM
COc1ccc(C(=O)O)cc1S(=O)(=O)Nc1cc(C(F)(F)F)ccc1N1CCC(O)C(C)(C)C1 (stereo not shown) [Example 24, 3-(N-(2-(4-hydroxy-3,3-dimethylpiperidin-1-yl)-5-(trifluoromethyl)phenyl)sulfamoyl)-4-methoxybenzoic acid] | < 500 nM

Compound | IC50
CCc1ccc(C(=O)O)cc1S(=O)(=O)Nc1cc(C(F)(F)F)ccc1N1CC(C)(O)C1 [Example 270, 4-ethyl-3-(N-(2-(3-hydroxy-3-methylazetidin-1-yl)-5-(trifluoromethyl)phenyl)sulfamoyl)benzoic acid] | < 5000 nM
COc1ccc(C(=O)O)cc1S(=O)(=O)Nc1cc(C(F)(F)F)ccc1N1CCCC(O)C1 (stereo not shown) [Example 177, 3-(N-(2-(3-hydroxypiperidin-1-yl)-5-(trifluoromethyl)phenyl)sulfamoyl)-4-methoxybenzoic acid] | < 500 nM
COc1ccc(C(=O)O)cc1S(=O)(=O)Nc1cc(C(F)(F)F)ccc1N1CC(O)(C2CC2)C1 [Example 21, 3-(N-(2-(3-cyclopropyl-3-hydroxyazetidin-1-yl)-5-(trifluoromethyl)phenyl)sulfamoyl)-4-methoxybenzoic acid] | > 5000 nM
CCc1ccc(C(=O)O)cc1S(=O)(=O)Nc1cc(-c2cnoc2C)c(Cl)cc1N1CCCCC1 [Example 306, 4-ethyl-3-(N-(4-Chloro-5-(5-methylisoxazol-4-yl)-2-(piperidin-1-yl)phenyl)sulfamoyl)benzoic acid] | < 500 nM
N#Cc1ccc(N2CCC(C#N)CC2)c(NS(=O)(=O)c2cc(C(=O)O)ccc2C2CC2)c1 [Example 326, 3-(N-(5-cyano-2-(4-cyanopiperidin-1-yl)phenyl)sulfamoyl)-4-cyclopropylbenzoic acid] | < 500 nM
COc1ccc(C(=O)O)cc1S(=O)(=O)Nc1cc(C(F)(F)F)ccc1N1CCCCCC1 [Example 68, 3-(N-(2-(azepan-1-yl)-5-(trifluoromethyl)phenyl)sulfamoyl)-4-methoxybenzoic acid] | < 500 nM
CCc1ccc(C(=O)O)cc1S(=O)(=O)Nc1cc(C(F)(F)F)ccc1N1CCC(C#N)CC1 [Example 238, 3-(N-(2-(4-cyanopiperidin-1-yl)-5-(trifluoromethyl)phenyl)sulfamoyl)-4-ethylbenzoic acid] | < 500 nM
CCc1ccc(C(=O)O)cc1S(=O)(=O)Nc1cc(-c2ccn(C)n2)ccc1N1CCCCC1 [Example 280, 4-ethyl-3-(N-(5-(1-methylpyrazol-3-yl)-2-(piperidin-1-yl)phenyl)sulfamoyl)benzoic acid] | < 500 nM
COc1ccc(C(=O)O)cc1S(=O)(=O)Nc1cc(C(F)(F)F)ccc1N1CCCC(OC)C1 (stereo not shown) [Example 179, 4-methoxy-3-(N-(2-(3-methoxypiperidin-1-yl)-5-(trifluoromethyl)phenyl)sulfamoyl)benzoic acid] | < 500 nM
COc1ccc(C(=O)O)cc1S(=O)(=O)Nc1cc(C(F)(F)F)ccc1N1CCC[C@H](F)C1 [Example 209, (S)-3-(N-(2-(3-fluoropiperidin-1-yl)-5-(trifluoromethyl)phenyl)sulfamoyl)-4-methoxybenzoic acid] | < 500 nM
N#CC1CCN(c2ccc(C(F)(F)F)cc2NS(=O)(=O)c2cc(C(=O)O)ccc2C2CC2)CC1 [Example 315, 3-(N-(2-(4-cyanopiperidin-1-yl)-5-(trifluoromethyl)phenyl)sulfamoyl)-4-cyclopropylbenzoic acid] | < 500 nM
CCc1ccc(C(=O)O)cc1S(=O)(=O)Nc1cc(-c2nnco2)ccc1N1CCCCC1 [Example 299] | < 500 nM
COc1ccc(C(=O)O)cc1S(=O)(=O)Nc1cc(C(F)(F)F)ccc1N1CC(C)(O)C1 [Example 18, 3-(N-(2-(3-hydroxy-3-methylazetidin-1-yl)-5-(trifluoromethyl)phenyl)sulfamoyl)-4-methoxybenzoic acid] | < 5000 nM
CCc1ccc(C(=O)O)cc1S(=O)(=O)Nc1cc(S(C)(=O)=O)ccc1N1CCC[C@H](O)C1 [Example 247, (S)-4-ethyl-3-(N-(2-(3-hydroxypiperidin-1-yl)-5-(methylsulfonyl)phenyl)sulfamoyl)benzoic acid] | < 500 nM
CCc1ccc(C(=O)O)cc1S(=O)(=O)Nc1cc(C(F)(F)F)ccc1N1CCCOCC1 [Example 43, 3-(N-(2-(1,4-oxazepan-4-yl)-5-(trifluoromethyl)phenyl)sulfamoyl)-4-ethylbenzoic acid] | < 500 nM
O=C(O)c1ccc(Cl)c(S(=O)(=O)Nc2cc(C(F)(F)F)ccc2N2CCCCCC2)c1 [Example 86, 3-(N-(2-(azepan-1-yl)-5-(trifluoromethyl)phenyl)sulfamoyl)-4-chlorobenzoic acid] | < 500 nM
N#Cc1ccc(N2CCCCC2)c(NS(=O)(=O)c2cc(C(=O)O)ccc2C2CC2)c1 [Example 295, 3-(N-(5-cyano-2-(piperidin-1-yl)phenyl)sulfamoyl)-4-cyclopropylbenzoic acid] | < 500 nM
O=C(O)c1ccc(OCC(F)(F)F)c(S(=O)(=O)Nc2cc(C(F)(F)F)ccc2N2CCCCC2)c1 [Example 227, 3-(N-(2-(piperidin-1-yl)-5-(trifluoromethyl)phenyl)sulfamoyl)-4-(2,2,2-trifluoroethoxy)benzoic acid] | < 5000 nM
